# Results published in patent publication US20130296230A1, “METHOD FOR TREATING MALARIA, METHOD FOR KILLING MALARIA PARASITE, AND USE OF THE METHODS” (RIKEN, priority 2010, published 2013).
# Where two headings read alike, the source gives them in different places.
# Assays:
# [1] = tested on: falciparum malaria parasite FCR-3 strain; assay: Assay for examining inhibition of development of P. falciparum (synchronized culture, Giemsa smear parasitaemia count); type: cell-based
# Method: An FCR-3 strain of falciparum malaria parasite (P. falciparum) (reference document: Hatabu T, Takada T, Taguchi N, Suzuki M, Sato K, Kano S. (2005) Antimicrob Agents Chemother. 2005 February; 49(2):493-6.) was cultured in RPMI culture medium (Invitrogen/GIBCO) in accordance with the method of Trager and Jensen (reference document: Trager, W. 86 Jensen, J. B. (1976) Science 193, 673-675.). The FCR-3 strain is a strain which takes an approximately 40 hours to undergo one development/proliferation cycle of invasion of merozoites into erythrocytes, formation of ring forms, formation of trophozoites, formation of schizonts, release of mature merozoites, and invasion of the mature merozoites into erythrocytes. To the RPMI culture medium, 0.5 weight % AlubumaxI (Invitrogen), 25 mM HEPES, 24 mM sodium hydrogen carbonate, 0.5 g/L L-glutamine, 50 mg/L hypoxanthine, 25 μg/ml gentamicin (Sigma), and human erythrocytes with 5% hematocrit (provided by a healthy volunteer) were added. Further, synchronized culturing was carried out with the use of 5 weight % d-sorbitol (reference document: Lambros, C. 86 Vanderberg, J. P. (1979) J. Parasitol. 65, 418-420.) to synchronize developments of P. falciparum.
# Effects of 2-APB (2-aminoethyl diphenylborinate) and LZ (luzindole) on intraerythrocytic falciparum malaria parasite development were examined with the use of a culture of falciparum malaria parasites in a ring form stage with initial parasitaemia of approximately 1%.
# First, 500 μl of the culture was injected into each well of a tissue culture plate (24-well flat-bottom plate, Corning). 2-APB and LZ were dissolved in dimethyl sulfoxide (DMSO, HYBRI-MAX (Registered Trademark), Sigma) to be 10 mM and 100 mM in concentration, respectively. In this way, stock solutions of these compounds were prepared. The stock solutions were diluted with the RPMI culture medium, and were added to each well of the tissue culture plate in an amount to be a predetermined final concentration in the well. Further, DMSO was diluted with the PPMI culture medium and was added to each well of a tissue culture plate in an amount to be a predetermined final concentration in the well, and was used as a control. Culturing was carried out in each well for a predetermined period of time.
# After elapse of the predetermined period of time, a drop of the erythrocytes-containing culture in each well of the tissue culture plate was smeared on a glass slide and giemsa-stained. The number of erythrocytes infected with falciparum malaria parasites out of 2000 erythrocytes was counted so as to determine parasitaemia.
# [2] = tested on: falciparum malaria parasites (P. falciparum); assay: Intracellular fluorescence Ca2+ imaging of P. falciparum in intraerythrocytic stage; type: cell-based
# Method: Next, 1 ml of the culture of the erythrocytes that had been thus diluted was collected by centrifugation (at 1,000 g for five minutes at room temperature), then resuspended in 350 μL BSA(−) culture medium constituted by the same constituents as the BSA(−) culture medium mentioned above (hereinafter referred to as “erythrocyte resuspension (1)”).
# Erythrocytes were then washed once with 10 mL BSA(−) culture medium (1000 g for 5 minutes at room temperature) and resuspended in 600 μL BSA(+) culture medium (the BSA(−) culture medium supplemented with 0.5 weight % Albumax 1 and 25 μg/mL gentamicin (Sigma)) (hereinafter referred to as “erythrocyte resuspension (2)”). Next, 100 μL of the erythrocyte resuspension (2) was inoculated in a 35 mm glass-bottomed dish (MatTek Corp.) coated with 0.1 mg/ml poly-L-lysine. After 30 minutes of incubation in an O2/CO2 incubator, suspended erythrocytes were gently washed with BSA(+) culture medium before collecting.
# The glass-bottomed dish was then placed in a culture chamber in which an O2 level, a CO2 level, temperature, and humidity were maintained under conditions (O2 level: 5%, CO2 level, 5%, temperature: 37° C.) used for conventional in vitro culturing of malaria parasites.
# The acquisition of the transparent images and acquisition of light emissions were carried out by the true spectral detection method developed by Leica Microsystems. The imaging was carried out at intervals of every 5 to 15 seconds for duration of 300 to 600 seconds. A fluorescence intensity of fluo4-AM was calculated by subtraction of background fluorescence (F) and normalized to minimum fluorescence during the imaging period (Fmin).
# [3] = tested on: falciparum malaria parasites
# Method: Specimens to be subjected to the electron microscopy were fixed for approximately 2 hours in 2.5% (V/V) glutaraldehyde buffered with 0.1 M phosphate buffer (pH 7.4, at 4° C.). The specimens were then post-fixed in 1% (w/V) osmium tetroxide for 1 hour.
# [4] = tested on: falciparum malaria parasite FCR-3 strain
# Source text: (§1) Giemsa-stained smears were observed by Nikon Eclipse 80i microscope (Nikon), photographed by Nikon DXM 1200F camera (Nikon) and uploaded on a personal computer by digital photograph manager software (ACT-1; Nikon). In order to measure falciparum malaria parasite size, 50 falciparum malaria parasites were randomly selected, and areas containing these falciparum malaria parasites were manually delineated with lines on a screen. Area, perimeter, and maximum diameter of the falciparum malaria parasites cells was calculated by WinROOF software package Ver.5.8.1 (Mitani, Japan).
# In order to quantitatively examine the effect of 2-APB on intraerythrocytic falciparum malaria parasite development, the area, perimeter and maximum diameter (hereinafter referred to collectively as “three parameters”) of falciparum malaria parasite cells were analyzed at 15 hours, 30 hours, and 40 hours from the start of the synchronized culturing. At 40 hours from the start of the synchronized culturing, only schizonts were analyzed.
# In order to investigate an effect of 2-APB in the ring form stage, 100 μM 2-APB was added to falciparum malaria parasites that were being synchronized-cultured, and sizes of the falciparum malaria parasites were measured after 10 hours of culturing and after 20 hours of culturing. In some assays (“removed at 10 h” in (f) of FIG. 6), 100 μM 2-APB was added at start of the culturing and removed after 10 hours of culturing, and then sizes of falciparum malaria parasites were measured after 20 hours of culturing (see (f) of FIG. 6). […] Fifty falciparum malaria parasites were measured in each experimental group. P values compared with the controls (in the presence of DMSO) are given in each panel (two-tailed unpaired t test with Welch's correction).
# [5] = tested on: falciparum malaria parasites; details: cultured 30 hours in presence of 2-APB
# Method: ER-Tracker Red (Invitrogen). […] ER-Tracker Red was then added to the erythrocyte suspension so as to be 0.5 μM in final concentration, and the mixture was shaken at 200 rpm for 30 minutes at 37° C.
# [6] = tested on: chloroquine-resistant strain K1 of falciparum malaria parasites (P. falciparum)
# Method: (§2) An effect of 2-APB on intraerythrocytic development of a chloroquine-resistant strain K1 of falciparum malaria parasites (P. falciparum) was examined by synchronized culturing malaria parasites in ring forms with initial parasitaemia of approximately 2%. The culturing was terminated at 24 hours, 48 hours, and 72 hours from the start of the synchronized culturing, and thin smears of erythrocytes were prepared for falciparum malaria parasite counting. Culture medium with 100 μM DMSO or 100 μM 2-APB was replaced at 24 hours and 48 hours from the start of the synchronized culturing. […] Parasitaemia of ring forms (Rf), trophozoites (T), early schizonts (ES) and late schizonts (LS) is shown as mean±S.D. of 3 wells. Stages with parasitaemia of less than 0.1% are not shown.
# [7] = tested on: chloroquine-resistant strain K1 of falciparum malaria parasites; details: 100 μM 2-APB; 24 hours
# Source text: as §1, §2
# malaria parasites = details: cited from earlier work
compound,measurement,setting,value
"CC(=O)NCCc1c(Cc2ccccc2)[nH]c2ccccc12 [LZ, luzindole]",Intraerythrocytic falciparum malaria parasite development,"[1]; 250 μM LZ, 20, 40, 70 hours",clearly inhibited
same,Developmental stage reached,"[1]; 250 μM LZ, 20 hours",remained in a transition stage from ring forms to early trophozoites
same,Developmental stage reached,"[1]; 250 μM LZ, 40 hours",most of the falciparum malaria parasites remained in the transition stage from ring forms to early trophozoites
same,Developmental stage reached,"[1]; 250 μM LZ, 70 hours",remained in the transition stage from ring forms to early trophozoites even at 70 hours
"C/C=C(/C)C(=O)O[C@H]1C(C)=C2[C@H]([C@@H]1OC(=O)CCCCCCC)[C@@](C)(OC(C)=O)C[C@H](OC(=O)CCC)[C@@]1(O)[C@H]2OC(=O)[C@@]1(C)O [Tg, thapsigargin]",Ca2+ oscillations,"[2]; pre-treatment with 2 μM Tg for 30 minutes, early ring forms and trophozoites",blocked
COc1ccc2c(c1)CC[C@@H]1[C@@H]2CC[C@]2(C)[C@@H](NCCCCCCN3C(=O)C=CC3=O)CC[C@@H]12 [U73122],Ca2+ oscillations,"[2]; 5 minutes pre-treatment with 10 μM U73122, early ring form and trophozoite stages",almost completely blocked
"C/C=C/[C@H]1O[C@@](O)([C@@H](C)[C@H](O)[C@H](C)[C@H]2OC(=O)/C(OC)=C/C(C)=C/[C@@H](C)[C@@H](O)[C@@H](CC)[C@@H](O)[C@H](C)C/C(C)=C/C=C/[C@@H]2OC)C[C@@H](O[C@H]2C[C@@H](O)[C@H](OC(N)=O)[C@@H](C)O2)[C@@H]1C [CMA, concanamycin A]",Ca2+ oscillations,"[2]; pre-treatment with 100 nM CMA, early ring forms and trophozoites",no effect
"NCCOB(c1ccccc1)c1ccccc1 [2-APB, 2-aminoethyl diphenylborinate]",Ultrafine structure (electron micrographs),"[3]; 100 μM 2-APB, 30 hours",highly dense chromatin masses in the nucleus and highly dense degeneration
same,Nuclear envelope and endoplasmic reticulum in electron micrographs,[3]; cultured in presence of 2-APB,dilated nuclear envelope and endoplasmic reticulum
same,Intraerythrocytic development of falciparum malaria parasites,"[1]; 100 μM 2-APB vs DMSO controls, 20, 30, 40 hours of synchronized culturing",clearly delayed
same,Ring form parasitaemia at 45 hours,[1]; 2-APB added at late schizont stage (28 hours),significantly decreased
same,Parasitaemia of ring forms at 40 hours,"[1]; 2-APB added between trophozoite and early schizont stages (21 hours), compared with the removal cases",greater effect
same,Number of merozoites formed in each schizont,"[1]; 2-APB vs DMSO, 40 hours",significantly smaller
same,Erythrocyte parasitaemia,"[1]; 2-APB, medium replaced at 40 h, 70 hours from start of synchronized culturing",substantially zero
same,Developmental stage reached,"[1]; 2-APB, 20 hours from start of synchronized culturing",remained at the trophozoite stage
same,Parasite morphology,"[1]; cultured in presence of 2-APB, up to 40 hours",abnormal morphology
same,Parasite development in 2-APB-pretreated erythrocytes,"[1]; erythrocytes treated with 2-APB only in advance, 20 and 40 hours",could develop normally
same,"Area, perimeter and maximum diameter of parasite cells",[4]; 100 μM 2-APB present for 10 hours and 20 hours vs DMSO,significantly smaller
same,"Area, perimeter and maximum diameter of parasite cells","[4]; 100 μM 2-APB removed at 10 hours, measured at 20 hours vs DMSO",no statistically significant difference
same,"Area, perimeter and maximum diameter of parasite cells","[4]; 100 μM 2-APB vs DMSO, 15, 30 and 40 hours",significant decreases
same,Endoplasmic reticulum tracker signals,[5],became broad and extended to the cytosol
same,Parasitaemia of trophozoites,"[6]; 100 μM 2-APB, 24 hours",tendency towards decreasing parasitaemia
same,Intraerythrocytic malaria parasite development,"[6]; 2-APB vs DMSO, 48 hours",delayed
same,Number of erythrocytes infected with falciparum malaria parasite,"[6]; 2-APB vs DMSO, 72 hours",much lesser
same,Effect of 2-APB on the K-1 strain,[6]; 24 hour from start of assay,relatively weak
same,"Inhibitory effect by area, perimeter and maximum diameter of parasite cells",[7],confirmed
same,Spontaneous Ca2+ oscillations,"[2]; 100 μM 2-APB, early ring form and trophozoite stages",almost completely blocked
same,Ca2+ fluctuations,"[2]; 100 μM 2-APB, late ring form, schizont and merozoite stages",no notable effect
same,Amplitude of periodic Ca2+ fluctuations (mean max minus mean min F/Fmin),"[2]; 2-APB, late ring form, schizont, merozoite stages, quantitative analysis",statistically significant effect of 2-APB was observed only in the merozoite stage
same,Increase in concentration of calcium ion in cytoplasm brought about by melatonin,malaria parasites; 2-APB administered to malaria parasites,suppressed
same,Promotion of calcium discharge by 2-APB itself,malaria parasites; malaria parasites,no effect
